Results on 27 compounds are retold here after US20240034736A1, “HSD17B13 INHIBITORS AND USES THEREOF” (FL2022-001, Inc., priority 2020, published 2024).

pIC50: −log10 of the molar value.

Chain of Recombinant human HSD17B13 enzyme (Q7Z5P4 20-300): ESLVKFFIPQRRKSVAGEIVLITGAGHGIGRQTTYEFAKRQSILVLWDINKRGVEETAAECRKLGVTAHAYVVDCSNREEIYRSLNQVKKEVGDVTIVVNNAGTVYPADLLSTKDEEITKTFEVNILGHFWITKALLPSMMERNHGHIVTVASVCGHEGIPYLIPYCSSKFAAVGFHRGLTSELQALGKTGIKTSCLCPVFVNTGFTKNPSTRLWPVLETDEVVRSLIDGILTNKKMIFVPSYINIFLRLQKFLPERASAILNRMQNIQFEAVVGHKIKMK

The target of the first experiment is Recombinant human HSD17B13 enzyme (Homo sapiens (Human), UniProt Q7Z5P4). As to the kind of experiment: HSD17b13 NAD(P)H-Glo Biochemical Assay. The note with it: 50 uM estradiol, 1 mM NAD+; read-out: HSD17β13 IC50. A digest of the protocol:
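Luminescent NAD(P)H-Glo detection (1 h, RT) quantified cofactor reduction after a 3 h, 37° C reaction of human HSD17B13 with estradiol (50 uM final) and NAD+ (1 mM final). Compounds were first pre-incubated 20 min at RT with enzyme in Tris pH 7.4 buffer containing Tween-20 and BSA.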
With `O=S(=O)(C1CC1)N1CCN(c2cc3cnn(-c4cc(O)c(F)c(F)c4)c3cc2Cl)CC1` [Compound 21.32, 5-(6-Chloro-5-(4-(cycloprop-ylsulfonyl)piperazin-1-yl)-1H-indazol-1-yl)-2,3-difluoro-phenol], the pIC50 is 6.00 to 7.00.
The same measure, in the same setting: with `Oc1cncc(-c2ccc3c(cnn3-c3cc(O)c(F)c(F)c3)c2)c1` [Compound 7.03, 5-(1-(3,4-Difluoro-5-hydroxyphenyl)-1H-indazol-5-yl)pyridine-3-ol] the figure was 6.00 to 7.00.
On the same count and under the same terms, with `Oc1cc(-n2ncc3cc(N4CCCCC4)ncc32)cc(C(F)(F)F)c1F` [Compound 21.42, 2-Fluoro-5-(5-(piperidin-1-yl)-1H-pyrazolo[3,4-c]pyridine-1-yl)-3-(trifluoromethyl)phenol] the figure was 6.00 to 7.00.
Regarding `CS(=O)(=O)N1CCN(c2cc3cn(-c4ccc(Cl)c(O)c4)nc3cn2)CC1` [Compound 19.15, 2-Chloro-5-(5-(4-(methylsulfonyl)piperazin-1-yl)-2H-pyrazolo[3,4-c]pyridine-2-yl)phenol], the negative logarithm of the IC50 (pIC50) is 4.52 to 6.00.
On to `CN(C)S(=O)(=O)c1ccc(-c2ccc3c(cnn3-c3ccc(F)c(O)c3)c2)cc1` [Compound 5.25, 4-(1-(4-Fluoro-3-hydroxyphenyl)-1H-indazol-5-yl)-N,N-dimethylbenzenesulfonamide], for which the pIC50 was 6.00 to 7.00.
The same measure, in the same setting: with `CS(=O)(=O)N1CCN(c2cc3c(F)nn(-c4cc(O)c(F)c(C(F)(F)F)c4)c3cn2)CC1` [Compound 21.53, 2-Fluoro-5-(3-fluoro-5-(4-(methylsulfonyl)piperazin-1-yl)-1H-pyrazolo[3,4-c]pyridin-1-yl)-3-(trifluoromethyl)phenol] the figure was greater than 7.00; with `Cc1nn(-c2ccc(F)c(O)c2)c2ccc(-c3ccc(O)c(Cl)c3)cc12` [Compound 4.05, 2-Chloro-4-(1-(4-fluoro-3-hydroxyphenyl)-3-methyl-1H-indazol-5-yl)phenol], 6.00 to 7.00.
Still for that read-out and setting: then `CS(=O)(=O)N1CCN(c2cc3cnn(-c4ccc(F)c(O)c4F)c3cn2)CC1` [Compound 19.07, 2,6-Difluoro-3-(5-(4-(methylsulfonyl)piperazin-1-yl)-1H-pyrazolo[3,4-c]pyridine-1-yl)phenol], with 6.00 to 7.00; and `CC(=O)N1CCC(Oc2ccc3c(cnn3-c3cc(O)c(F)c(F)c3)c2)CC1` [Compound 24, 1-(4-((1-(3,4-Difluoro-5-hydroxyphenyl)-1H-indazol-5-yl)oxy)piperidin-1-yl)ethan-1-one], with 4.52 to 6.00.
With `Oc1cc(-n2ncc3cc(N4CCC5(CC4)CC5)ncc32)cc(C(F)(F)F)c1F` [Compound 21.44, 5-(5-(6-Azaspiro[2.5]octan-6-yl)-1H-pyrazolo[3,4-c]pyridine-1-yl)-2-fluoro-3-(trifluoro-methyl)phenol], the pIC50 was greater than 7.00.
On the same count and under the same terms, with `Cc1nn(-c2cc(C(F)(F)F)c(F)c(O)c2F)c2cc(F)c(N3CCOCC34CC4)nc12` [Compound 19.50, 2,6-Difluoro-3-(6-fluoro-3-methyl-5-(7-oxa-4-azaspiro[2.5]octan-4-yl)-1H-pyrazolo[4,3-b]pyridine-1-yl)-5-(trifluoromethyl)phenol] the figure was greater than 7.00; with `CS(=O)(=O)N1CCN(c2ccc3c(cnn3-c3cc(O)c(F)c(C(F)(F)F)c3)c2)C2(CC2)C1` [Compound 21.45, 2-Fluoro-5-(5-(7-(methyl-sulfonyl)-4,7-diazaspiro[2.5]-octan-4-yl)-1H-indazol-1-yl)-3-(trifluoromethyl)phenol], 6.00 to 7.00.
`Oc1cc(-n2nc(Cl)c3cc(-c4ccc(O)c(Cl)c4)ccc32)ccc1F` [Compound 4.14, 2-Chloro-4-(3-chloro-1-(4-fluoro-3-hydroxyphenyl)-1H-indazol-5-yl)phenol]: the pIC50 is 6.00 to 7.00.
For the compound `Oc1cc(-n2ccc3cc(-c4ccc(O)c(Cl)c4)ccc32)ccc1F` [Compound 1.06, 2-Chloro-4-(1-(4-fluoro-3-hydroxyphenyl)-1H-indol-5-yl)phenol], the pIC50 was 6.00 to 7.00.
On the same count and under the same terms, with `Oc1cc(F)cc(-n2ncc3cc(-c4ccc(O)c(Cl)c4)ccc32)c1` [Compound 3, 2-Chloro-4-(1-(3-fluoro-5-hydroxyphenyl)-1H-indazol-5-yl)phenol] the figure was 4.52 to 6.00.
For `CS(=O)(=O)N1CCN(c2ccc3c(cnn3-c3cc(O)c(F)c(F)c3)n2)CC1` [Compound 21.18, 2,3-Difluoro-5-(5-(4-(methyl-sulfonyl)piperazin-1-yl)-1H-pyrazolo[4,3-b]pyridine-1-yl)-phenol], the negative-log IC50 (pIC50) was 4.52 to 6.00.
The same measure, in the same setting: with `CN(c1ccc2c(c1)c(C(N)=O)nn2-c1cc(C(F)(F)F)c(F)c(O)c1F)C1CCOCC1` [Compound 19.111, 1-(2,4-Difluoro-3-hydroxy-5-(trifluoromethyl)phenyl)-5-(methyl(tetrahydro-2H-pyran-4-yl)amino)-1H-indazole-3-carboxamide] the figure was 6.00 to 7.00; with `COc1ccc(-c2ccc3c(cnn3-c3cc(O)c(F)c(F)c3)c2)cn1` [Compound 7.01, 2,3-Difluoro-5-(5-(6-methoxypyridin-3-yl)-1H-indazol-1-yl)phenol], 6.00 to 7.00; with `COC1CCN(c2ncc3c(n2)c(C)nn3-c2cc(C(F)(F)F)c(F)c(O)c2F)CC1` [Compound 19.77, 2,6-Difluoro-3-(5-(4-methoxypiperidin-1-yl)-3-methyl-1H-pyrazolo[4,3-d]pyrimidin-1-yl)-5-(trifluoromethyl)phenol], greater than 7.00.
The same measure, in the same setting: then `CS(=O)(=O)N1CCN(c2cc3cnn(-c4cc(O)c(F)c(F)c4)c3cn2)CC1` [Compound 21.40, 2,3-Difluoro-5-(5-(4-(methyl-sulfonyl)piperazin-1-yl)-1H-pyrazolo[3,4-c]pyridine-1-yl)-phenol], with 6.00 to 7.00; and `Oc1cc(-n2ncc3cc(-c4cncc(F)c4)ccc32)cc(F)c1F` [Compound 7.04, 2,3-Difluoro-5-(5-(5-fluoropyridin-3-yl)-1H-indazol-1-yl)phenol], with 6.00 to 7.00; and `O=C(O)c1cccc(-c2ccc3c(cnn3-c3ccc(F)c(O)c3)c2)c1` [Compound 5.24, 3-(1-(4-Fluoro-3-hydroxyphenyl)-1H-indazol-5-yl)benzoic acid], with 4.52 to 6.00.
Still for that read-out and setting: with `CS(=O)(=O)N1CCN(c2ccc3c(cnn3-c3cc(O)c(F)c(F)c3)c2)CC1` [Compound 21, 2,3-Difluoro-5-(5-(4-(methylsulfonyl)piperazin-1-yl)-1H-indazol-1-yl)phenol] the figure was 6.00 to 7.00.
For the compound `NS(=O)(=O)c1ccc(-c2ccc3c(cnn3-c3ccc(F)c(O)c3)c2)cc1` [Compound 5.04, 4-(1-(4-Fluoro-3-hydroxyphenyl)-1H-indazol-5-yl)benzenesulfonamide], the negative logarithm of the IC50 (pIC50) is 6.00 to 7.00.
The same measure, in the same setting: with `COc1ccc(-c2ccc3c(cnn3-c3cc(O)c(F)c(C(F)(F)F)c3)c2)cc1Cl` [Compound 1.02, 5-(5-(3-Chloro-4-methoxyphenyl)-1H-indazol-1-yl)-2-fluoro-3-(trifluoromethyl)phenol] the figure was 6.00 to 7.00.

The same experiment, now with this note: read-out: HSD17β13 inhibition at 30 uM.
Regarding `CS(=O)(=O)N1CCN(c2cc3cnn(-c4cc(O)cc(C#N)c4)c3cn2)CC1` [Compound 19.123, 3-Hydroxy-5-(5-(4-(methylsulfonyl)piperazin-1-yl)-1H-pyrazolo[3,4-c]pyridin-1-yl)benzonitrile], the inhibition at 30 µM worked out at 30%.
The same measure, in the same setting: then `CS(=O)(=O)N1CCN(c2ccc3c(c2)cc(C(=O)O)n3-c2ccc(F)c(O)c2)CC1` [Compound 21.61, 1-(4-Fluoro-3-hydroxyphenyl)-5-(4-(methylsulfonyl)piperazin-1-yl)-1H-indole-2-carboxylic acid], with less than 20%.

Broadly, the pIC50 is the IC50 on a negative log10 scale, so that one unit is a factor of ten. Broadly, the inhibition is the change of the read-out against control, counted positive when it falls.
